Assay results published in patent publication US6693189B2, “Materials and method for treating or preventing pathogenic fungal infection” (Ariad Gene Therapeutics, Inc., priority 1996, dated 2004).
Like-named read-outs stand apart in the source and are kept apart here.

How the values were obtained:
human FKBP12 = human FKBP12 (Homo sapiens, UniProt P62942); assay: competitive fluorescence polarization (FP) FKBP binding assay; details: for fold loss in affinity (cf rapamycin) / fold loss in affinity (vs rapamycin): =IC50/IC50 of rapamycin; for fold loss in affinity (cf rapamycin): C7 rapalogs; for fold loss in affinity (vs rapamycin): C24 oximes
Sequence of human FKBP12 (P62942 whole entry): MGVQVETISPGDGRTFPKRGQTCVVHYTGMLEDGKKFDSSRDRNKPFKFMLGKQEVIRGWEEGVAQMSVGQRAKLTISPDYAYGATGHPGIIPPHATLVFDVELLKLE

[1] = system: Aspergillus fumigatus clinical isolates; assay: broth macrodilution antifungal assay, Aspergillus fumigatus; assay type: cell-based; details: III = Asp fumigatus; ratio of relative antifungal to relative immunosuppressive activity
[2] = system: Cryptococcus neoformans clinical isolates; assay: broth macrodilution antifungal assay, Cryptococcus neoformans; assay type: cell-based; details: ratio of relative antifungal to relative immunosuppressive activity
[3] = system: Candida albicans clinical isolates; assay: broth macrodilution antifungal assay, C. albicans; assay type: cell-based; details: ratio of relative antifungal to relative immunosuppressive activity
[4] = read-out: FKBP wt FP binding assay IC50, rapamycin C24 oximes, competition with fluoresceinated FK506 probe AP1491

Compound	fold loss in affinity (vs rapamycin) (human FKBP12)	IC50 (human FKBP12; [4])	fold loss in affinity (cf rapamycin) (human FKBP12)	also measured
COC1CC(CC(C)C2CC(=O)C(C)C=C(C)C(O)C(OC)C(=O)C(C)CC(C)C=CC=CC=C(C)C(c3ccc(C)s3)CC3CCC(C)C(O)(O3)C(=O)C(=O)N3CCCCC3C(=O)O2)CCC1O (stereo not drawn) [Compound 37]			1.9	
CO[C@H]1C[C@@H]2CC[C@@H](C)[C@@](O)(O2)C(=O)C(=O)N2CCCC[C@H]2C(=O)O[C@H]([C@H](C)C[C@@H]2CC[C@@H](O)[C@H](OC)C2)C/C(=N/OCc2ccccc2)[C@H](C)/C=C(\C)[C@@H](O)[C@@H](OC)C(=O)[C@H](C)C[C@H](C)/C=C/C=C/C=C/1C [Compound 11, Rapamycin (E and Z)-24-(O-benzyloxime)]	3627			IC50 (human FKBP12): 8340 nM
CO[C@H]1C[C@@H]2CC[C@@H](C)[C@@](O)(O2)C(=O)C(=O)N2CCCC[C@H]2C(=O)O[C@H]([C@H](C)C[C@@H]2CC[C@@H](O)[C@H](OC)C2)CC(=O)[C@H](C)/C=C(\C)[C@@H](O)[C@@H](OC)C(=O)[C@H](C)C[C@H](C)/C=C/C=C/C=C/1C [rapamycin, Rapamycin]				AF/IS III [1]: 1; AF/IS II [2]: 1; AF/IS I [3]: 1
CCOC1C[C@@H]2CC[C@@H](C)[C@@](O)(O2)C(=O)C(=O)N2CCCC[C@H]2C(=O)O[C@H]([C@H](C)C[C@@H]2CC[C@@H](O)[C@H](OC)C2)CC(=O)[C@H](C)/C=C(\C)[C@@H](O)[C@@H](OC)C(=O)[C@H](C)C[C@H](C)/C=C/C=C/C=C/1C (stereo partly drawn) [Compound 27]			1.1	
COC1CC(CC(C)C2CC(=O)C(C)C=C(C)C(O)C(OC)C(=O)C(C)CC(C)C=CC=CC=C(C)C(c3ccc(C)s3)CC3CCC(C)C(O)(O3)C(=O)C(=O)N3CCCCC3C(=O)O2)CCC1O (stereo not drawn) [Compound 36]			1.6	
COC1CC2CCC(C)C(O)(O2)C(=O)C(=O)N2CCCCC2C(=O)OC(C(C)CC2CCC(O)C(OC)C2)CC(=NOCc2ccccc2)C(C)C=C(C)C(O)C(OC)C(=O)C(C)CC(C)C=CC=CC=C1C (stereo not drawn) [Compound 12, Rapamycin (E and Z)-24-(O-benzyloxime)]	616	1420 nM		
CCOC1C[C@@H]2CC[C@@H](C)[C@@](O)(O2)C(=O)C(=O)N2CCCC[C@H]2C(=O)O[C@H]([C@H](C)C[C@@H]2CC[C@@H](O)[C@H](OC)C2)CC(=O)[C@H](C)/C=C(\C)[C@@H](O)[C@@H](OC)C(=O)[C@H](C)C[C@H](C)/C=C/C=C/C=C/1C (stereo partly drawn) [Compound 28]			1.6	

More lines, main results first:

fold loss in affinity (vs rapamycin) (human FKBP12)	IC50 (human FKBP12; [4])	Compound	fold loss in affinity (cf rapamycin) (human FKBP12)	also measured
>13043	> 30000 nM	COC1CC2CCC(C)C(O)(O2)C(=O)C(=O)N2CCCCC2C(=O)OC(C(C)CC2CCC(O)C(OC)C2)CC(=NOC(C)(C)C)C(C)C=C(C)C(O)C(OC)C(=O)C(C)CC(C)C=CC=CC=C1C (stereo not drawn) [Compound 19]		
1287	2960 nM	CCON=C1CC(C(C)CC2CCC(O)C(OC)C2)OC(=O)C2CCCCN2C(=O)C(=O)C2(O)OC(CCC2C)CC(OC)C(C)=CC=CC=CC(C)CC(C)C(=O)C(OC)C(O)C(C)=CC1C (stereo not drawn) [Compound 7, Rapamycin (E and Z)-24-(O-ethyloxime)]		
